Laboratory results from the NIST ThermoML archive (doi:10.1016/j.jct.2010.02.014).

Test: cn = amount concentration of the nth substance listed, in mol/dm3
Settings: 298.15 K, 101.3 kPa, Liquid, Taylor dispersion method

- binary diffusion coefficient (c1 = 0): 8.26e-10 m2/s
- binary diffusion coefficient (c1 = 0.005): 8.25e-10 m2/s
- binary diffusion coefficient (c1 = 0.01): 8.23e-10 m2/s
- binary diffusion coefficient (c1 = 0.02): 8.21e-10 m2/s
SMILES: NNC(=O)c1ccncc1 [isonicotinic acid hydrazide] + O
